The assay concerns Spodoptera frugiperda. As to the kind of experiment: Laboratory test with 2nd instar larva of Spodoptera frugiperda on maize leaves. The class given is in vivo.

In the case of `CNC(=O)c1cc(Cl)cc(C)c1NC(=O)c1cc(Br)nn1-c1ncccc1Cl` [Compound 2, 3-bromo-N-[4-chloro-2-methyl-6-[(methylamino)carbonyl]phenyl]-1-(3-chloro-2-pyridinyl)-1H-pyrazole-5-carboxamide], the “concentration needed to achieve 100% mortality within 72 h” value was 0.037 micrograms per g of tissue and the “concentration resulting in 50% mortality within 72 h” value is 0.033 micrograms per g of leaf tissu.

(Values after patent US8569268B2, “Acrylate/methacrylate-based diblock copolymer/anthranilic diamide compositions for propagule coating” (E I du Pont de Nemours and Company, priority 2010, dated 2013).)
